Experimental findings from US20110021530A1, “PYRIDAZINE DERIVATIVES AND THEIR USE AS THERAPEUTIC AGENTS IN THE TREATMENT OF SKIN DISORDERS” (XENON PHARMACEUTICALS INC., priority 2008, published 2011) are described below.

Each structure is given as a SMILES string.

In series [1] the target is T1, stearoyl-CoA desaturase (SCD) (Mus musculus, UniProt P13516).
T1 construct: Reactions are started by adding 2 mg of microsomal protein; from tissue; host or cells: liver microsomes of male ICR mice on a high-carbohydrate, low fat diet
T1 sequence (P13516 1-355): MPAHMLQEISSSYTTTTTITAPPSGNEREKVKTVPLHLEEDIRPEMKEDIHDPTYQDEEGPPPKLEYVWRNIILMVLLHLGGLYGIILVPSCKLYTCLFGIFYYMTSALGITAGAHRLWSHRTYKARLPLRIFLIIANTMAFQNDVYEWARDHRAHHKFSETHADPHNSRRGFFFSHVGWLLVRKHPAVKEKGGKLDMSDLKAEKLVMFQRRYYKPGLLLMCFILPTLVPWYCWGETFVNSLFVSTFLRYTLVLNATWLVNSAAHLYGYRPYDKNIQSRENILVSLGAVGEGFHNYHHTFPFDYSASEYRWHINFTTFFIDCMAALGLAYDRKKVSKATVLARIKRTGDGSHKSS
As to the kind of experiment: HTS microsomal assay of stearoyl-CoA desaturase inhibition using mouse liver microsomes. To be noted: % SCD enzyme activity remaining at 10 μM test compound. It is filed as biochemical. As for the experimental part:
The absence of mitochondrial contamination is enzymatically assessed.
The compounds are analyzed with an HTS microsomal assay.

Series [2] has as its target T2, SCD (Mus musculus, UniProt P13516).
T2 sequence (P13516 1-355): T1 sequence (P13516 1-355)
As to the kind of experiment: Mouse SCD IC50 determination for compounds active in the HTS assay. Type of series: biochemical.
Experimental: The compounds are analyzed with an HTS microsomal assay. The activities are defined in terms of % SCD enzyme activity remaining at the selected concentration (e.g., 10 μM) of the test compounds.

In series [3] the test system is HEPG2. Put plainly: HEPG2 IC50. Type of series: cell-based. Particulars: Homo sapiens.

Take `O=C(NCCc1ccccc1)Nc1ccc(N2CCN(C(=O)c3ccccc3C(F)(F)F)CC2)nn1`: the “Mouse microsome SCD activity % remaining @ 10 μM” value in series [1] was 15%. Further, the values for the half-inhibitory concentration (IC50) in series [2] and in series [3] were 0.06 µM and 0.23 µM, respectively.
For the compound `O=C(Nc1ccc(N2CCN(C(=O)c3ccccc3C(F)(F)F)CC2)nn1)Nc1ccccc1F` [1-(2-FLUOROPHENYL)-3-{6-[4-(2-TRIFLUOROMETHYLBENZOYL)PIPERAZIN-1-YL]-PYRIDAZIN-3-YL}UREA], the “Mouse microsome SCD activity % remaining @ 10 μM” value in series [1] was 73%.
As to `O=C(NCc1ccc(F)cc1)Nc1ccc(N2CCN(C(=O)c3ccccc3C(F)(F)F)CC2)nn1` [1-(4-FLUOROBENZYL)-3-{6-[4-(2-TRIFLUOROMETHYLBENZOYL)PIPERAZIN-1-YL]-PYRIDAZIN-3-YL}UREA], the “Mouse microsome SCD activity % remaining @ 10 μM” value in series [1] is reported as 6%. In addition, the IC50 in series [2] was determined as 0.07 µM; in series [3] it was 0.03 µM.
`O=C(Nc1ccc(F)cc1)Nc1ccc(N2CCN(C(=O)c3ccccc3C(F)(F)F)CC2)nn1` [1-(4-FLUOROPHENYL)-3-{6-[4-(2-TRIFLUOROMETHYLBENZOYL)PIPERAZIN-1-YL]-PYRIDAZIN-3-YL}UREA]: the “Mouse microsome SCD activity % remaining @ 10 μM” value in series [1] is given as 82%.
`O=C(NCc1ccccc1)Nc1ccc(N2CCN(C(=O)c3ccccc3C(F)(F)F)CC2)nn1` [1-BENZYL-3-{6-[4-(2-TRIFLUOROMETHYLBENZOYL)PIPERAZIN-1-YL]PYRIDAZIN-3-YL}UREA]: the “Mouse microsome SCD activity % remaining @ 10 μM” value in series [1] is on record as 8%. Also, the concentration for half-maximal inhibition (IC50) came to 0.04 µM in series [2] and 0.05 µM in series [3].
Turning to `CCCCNC(=O)Nc1ccc(N2CCN(C(=O)c3ccccc3C(F)(F)F)CC2)nn1` [1-BUTYL-3-{6-[4-(2-TRIFLUOROMETHYLBENZOYL)PIPERAZIN-1-YL]PYRIDAZIN-3-YL}UREA], the “Mouse microsome SCD activity % remaining @ 10 μM” value in series [1] is 13%. The IC50 in series [2] worked out at 0.07 µM; in series [3], 0.21 µM.
Take `CCCCCNC(=O)Nc1ccc(N2CCN(C(=O)c3ccccc3C(F)(F)F)CC2)nn1` [1-PENTYL-3-{6-[4-(2-TRIFLUOROMETHYLBENZOYL)PIPERAZIN-1-YL]PYRIDAZIN-3-YL}UREA]: the “Mouse microsome SCD activity % remaining @ 10 μM” value in series [1] was 6%. Besides, the IC50 is 0.01 µM in series [2] and 0.04 µM in series [3].
Take `CC(NC(=O)Nc1ccc(N2CCN(C(=O)c3ccccc3C(F)(F)F)CC2)nn1)c1ccc(F)cc1` (centres unmarked) [1-[1-(4-Fluorophenyl)ethyl]-3-{6-[4-(2-trifluoromethylbenzoyl)piperazin-1-yl]pyridazin-3-yl}urea]: the “Mouse microsome SCD activity % remaining @ 10 μM” value in series [1] was determined as 45%.
On to `O=C(NCCCc1ccc(F)cc1)Nc1ccc(N2CCN(C(=O)c3ccccc3C(F)(F)F)CC2)nn1` [1-[3-(4-Fluorophenyl)propyl]-3-{6-[4-(2-trifluoromethylbenzoyl)piperazin-1-yl]pyridazin-3-yl}urea], for which the “Mouse microsome SCD activity % remaining @ 10 μM” value in series [1] came to 14%. For the same compound, the results for the IC50 in series [2] and in series [3] were 1.37 µM and 0.35 µM, respectively.
For `CCOC(=O)CCNC(=O)Nc1ccc(N2CCN(C(=O)c3ccccc3C(F)(F)F)CC2)nn1` [3-(3-{6-[4-(2-TRIFLUOROMETHYLBENZOYL)PIPERAZIN-1-YL]-PYRIDAZIN-3-YL}-UREIDO)PROPIONIC ACID ETHYL ESTER], the “Mouse microsome SCD activity % remaining @ 10 μM” value in series [1] is 18%. Also, the IC50 in series [2] was determined as 2.77 µM; in series [3], 5.43 µM.
`COC(=O)C(CC(C)C)NC(=O)c1ccc(N2CCN(C(=O)c3ccccc3C(F)(F)F)CC2)nn1` (centres unmarked) [4-METHYL-2-({6-[4-(2-TRIFLUOROMETHYLBENZOYL)PIPERAZIN-1-YL]-PYRIDAZINE-3-CARBONYL}AMINO)PENTANOIC ACID METHYL ESTER]: in series [1], the “Mouse microsome SCD activity % remaining @ 10 μM” value was 69%.
With `CC(C)(C)OC(=O)N1CCN(c2ccc(C(=O)NCCC3CC3)nn2)CC1` [4-[6-(2-CYCLOPROPYLETHYLCARBAMOYL)PYRIDAZIN-3-YL]PIPERAZINE-1-CARBOXYLIC ACID T-BUTYL ESTER], in series [1], the “Mouse microsome SCD activity % remaining @ 10 μM” value came out at 37%.
For `CC(C)CCNC(=O)c1ccc(N2CCN(C(=O)OC(C)(C)C)CC2)nn1` [4-[6-(3-METHYLBUTYLCARBAMOYL)PYRIDAZIN-3-YL]PIPERAZINE-1-CARBOXYLIC ACID T-BUTYL ESTER], the “Mouse microsome SCD activity % remaining @ 10 μM” value in series [1] is 11%. The compound also displayed an IC50 in series [3] of 1.45 µM.
As for `O=C(NCCC1CC1)c1ccc(N2CCN(C(=O)C3CCCCC3)CC2)nn1` [6-(4-CYCLOHEXANECARBONYLPIPERAZIN-1-YL)PYRIDAZINE-3-CARBOXYLIC ACID (2-CYCLOPROPYLETHYL)AMIDE], the “Mouse microsome SCD activity % remaining @ 10 μM” value in series [1] amounted to 22%.
For `CC(C)CCNC(=O)c1ccc(N2CCN(C(=O)c3nnn(Cc4ccccc4)c3C(F)(F)F)CC2)nn1` [6-[4-(1-BENZYL-5-TRIFLUOROMETHYL-1H-[1,2,3]TRIAZOLE-4-CARBONYL)-PIPERAZIN-1-YL]PYRIDAZINE-3-CARBOXYLIC ACID (3-METHYLBUTYL)AMIDE], the “Mouse microsome SCD activity % remaining @ 10 μM” value in series [1] is on record as 61%.
For `O=C(NCCC1CC1)c1ccc(N2CCN(C(=O)C3(O)CC3)CC2)nn1` [6-[4-(1-HYDROXYCYCLOPROPANECARBONYL)PIPERAZIN-1-YL]PYRIDAZINE-3-CARBOXYLIC ACID (2-CYCLOPROPYLETHYL)AMIDE], the “Mouse microsome SCD activity % remaining @ 10 μM” value in series [1] was 73%.
In the case of `CC(C)CCNC(=O)c1ccc(N2CCN(C(=O)C3(C(F)(F)F)CC3)CC2)nn1` [6-[4-(1-TRIFLUOROMETHYLCYCLOPROPANECARBONYL)PIPERAZIN-1-YL]-PYRIDAZINE-3-CARBOXYLIC ACID (3-METHYLBUTYL)AMIDE], the “Mouse microsome SCD activity % remaining @ 10 μM” value in series [1] is recorded as 26%.
As for `CCC(CC)C(=O)N1CCN(c2ccc(C(=O)NCCC3CC3)nn2)CC1` [6-[4-(2-ETHYLBUTYRYL)PIPERAZIN-1-YL]PYRIDAZINE-3-CARBOXYLIC ACID (2-CYCLOPROPYLETHYL)AMIDE], the “Mouse microsome SCD activity % remaining @ 10 μM” value in series [1] is listed as 36%.
Take `O=C(NCCc1ccccc1)c1ccc(N2CCN(C(=O)c3ccccc3C(F)(F)F)CC2)nn1` [6-[4-(2-Trifluoromethylbenzoyl)piperazin-1-yl]pyridazine-3-carboxylic acid phenethylamide]: the “Mouse microsome SCD activity % remaining @ 10 μM” value in series [1] turned out to be 0%.
For the compound `CC(C)CCNC(=O)c1ccc(N2CCN(C(=O)c3c(C(F)(F)F)nnn3Cc3ccccc3)CC2)nn1` [6-[4-(3-BENZYL-5-TRIFLUOROMETHYL-3H-[1,2,3]TRIAZOLE-4-CARBONYL)PIPERAZIN-1-YL]PYRIDAZINE-3-CARBOXYLIC ACID (3-METHYLBUTYL)AMIDE], the “Mouse microsome SCD activity % remaining @ 10 μM” value in series [1] was 61%.
As to `CC(C)CCNC(=O)c1ccc(N2CCN(C(=O)C(C)CC(F)(F)F)CC2)nn1` (centres unmarked) [6-[4-(4,4,4-TRIFLUORO-2-METHYLBUTYRYL)PIPERAZIN-1-YL]PYRIDAZINE-3-CARBOXYLIC ACID (3-METHYLBUTYL)AMIDE], the “Mouse microsome SCD activity % remaining @ 10 μM” value in series [1] came to 19%.
As to `CC(C)CCNC(=O)c1ccc(N2CCN(C(=O)CC(C)C(F)(F)F)CC2)nn1` (centres unmarked) [6-[4-(4,4,4-TRIFLUORO-3-METHYLBUTYRYL)PIPERAZIN-1-YL]PYRIDAZINE-3-CARBOXYLIC ACID (3-METHYLBUTYL)AMIDE], the “Mouse microsome SCD activity % remaining @ 10 μM” value in series [1] was 11%. Also, half-maximal inhibition in series [3] (IC50) was put at 2.53 µM.
For `CC(C)CCNC(=O)c1ccc(N2CCN(C(=O)CCC(F)(F)F)CC2)nn1` [6-[4-(4,4,4-TRIFLUOROBUTYRYL)PIPERAZIN-1-YL]PYRIDAZINE-3-CARBOXYLIC ACID (3-METHYLBUTYL)AMIDE], in series [1], the “Mouse microsome SCD activity % remaining @ 10 μM” value turned out to be 42%.
Same read-out and setting: with `CC(C)CCNC(=O)c1ccc(N2CCN(C(=O)N3CCN(C)CC3)CC2)nn1` [6-[4-(4-METHYLPIPERAZINE-1-CARBONYL)PIPERAZIN-1-YL]PYRIDAZINE-3-CARBOXYLIC ACID (3-METHYLBUTYL)AMIDE] the figure was 29%.
`O=C(NCCC1CC1)c1ccc(N2CCN(C(=O)c3cc(Cl)ccc3C(F)(F)F)CC2)nn1` [6-[4-(5-CHLORO-2-TRIFLUOROMETHYLBENZOYL)PIPERAZIN-1-YL]PYRIDAZINE-3-CARBOXYLIC ACID (2-CYCLOPROPYLETHYL)AMIDE]: the “Mouse microsome SCD activity % remaining @ 10 μM” value in series [1] was found to be 12%. This compound gave an IC50 in series [2] of 0.09 µM.
As for `O=C(NCCC1CC1)c1ccc(N2CCN(C(=O)c3ccccn3)CC2)nn1` [6-[4-(PYRIDINE-2-CARBONYL)PIPERAZIN-1-YL]PYRIDAZINE-3-CARBOXYLIC ACID (2-CYCLOPROPYLETHYL)AMIDE], the “Mouse microsome SCD activity % remaining @ 10 μM” value in series [1] came to 94%.
Same read-out and setting: with `CC(c1ccccc1C(F)(F)F)N1CCN(c2ccc(C(=O)NCCC3CC3)nn2)CC1.Cl` (centres unmarked) [6-{4-[1-(2-TRIFLUOROMETHYLPHENYL)ETHYL]PIPERAZIN-1-YL}-PYRIDAZINE-3-CARBOXYLIC ACID (2-CYCLOPROPYLETHYL)AMIDE HYDROCHLORIDE] the figure was 24%.
As to `O=C(NCCC1CC1)c1ccc(N2CCN(C(=O)Cc3ccccc3C(F)(F)F)CC2)nn1` [6-{4-[2-(2-TRIFLUOROMETHYLPHENYL)ACETYL]PIPERAZIN-1-YL}PYRIDAZINE-3-CARBOXYLIC ACID (2-CYCLOPROPYLETHYL)AMIDE], the “Mouse microsome SCD activity % remaining @ 10 μM” value in series [1] came to 10%. In series [2], this compound returned an IC50 of 0.59 µM.
With `CC(=O)Oc1ccccc1C(=O)N1CCN(c2ccc(C(=O)NCCC3CC3)nn2)CC1` [ACETIC ACID 2-{4-[6-(2-CYCLOPROPYLETHYLCARBAMOYL)PYRIDAZIN-3-YL]-PIPERAZINE-1-CARBONYL}PHENYL ESTER], the “Mouse microsome SCD activity % remaining @ 10 μM” value in series [1] was 46%.
